Test results taken from patent publication US11524966B1 (Valo Early Discovery, Inc., priority 2017, dated 2022).

Target: T1, USP28 (His-tagged USP28-FL-mammalian) (Homo sapiens, UniProt Q96RU2)
T1 construct: Expression of USP28 (1-1077)-TEV-6*His (pTT5 vector); made in house; host or cells: Expi293f cells (pTT5 vector)
T1 sequence (Q96RU2 1-1077): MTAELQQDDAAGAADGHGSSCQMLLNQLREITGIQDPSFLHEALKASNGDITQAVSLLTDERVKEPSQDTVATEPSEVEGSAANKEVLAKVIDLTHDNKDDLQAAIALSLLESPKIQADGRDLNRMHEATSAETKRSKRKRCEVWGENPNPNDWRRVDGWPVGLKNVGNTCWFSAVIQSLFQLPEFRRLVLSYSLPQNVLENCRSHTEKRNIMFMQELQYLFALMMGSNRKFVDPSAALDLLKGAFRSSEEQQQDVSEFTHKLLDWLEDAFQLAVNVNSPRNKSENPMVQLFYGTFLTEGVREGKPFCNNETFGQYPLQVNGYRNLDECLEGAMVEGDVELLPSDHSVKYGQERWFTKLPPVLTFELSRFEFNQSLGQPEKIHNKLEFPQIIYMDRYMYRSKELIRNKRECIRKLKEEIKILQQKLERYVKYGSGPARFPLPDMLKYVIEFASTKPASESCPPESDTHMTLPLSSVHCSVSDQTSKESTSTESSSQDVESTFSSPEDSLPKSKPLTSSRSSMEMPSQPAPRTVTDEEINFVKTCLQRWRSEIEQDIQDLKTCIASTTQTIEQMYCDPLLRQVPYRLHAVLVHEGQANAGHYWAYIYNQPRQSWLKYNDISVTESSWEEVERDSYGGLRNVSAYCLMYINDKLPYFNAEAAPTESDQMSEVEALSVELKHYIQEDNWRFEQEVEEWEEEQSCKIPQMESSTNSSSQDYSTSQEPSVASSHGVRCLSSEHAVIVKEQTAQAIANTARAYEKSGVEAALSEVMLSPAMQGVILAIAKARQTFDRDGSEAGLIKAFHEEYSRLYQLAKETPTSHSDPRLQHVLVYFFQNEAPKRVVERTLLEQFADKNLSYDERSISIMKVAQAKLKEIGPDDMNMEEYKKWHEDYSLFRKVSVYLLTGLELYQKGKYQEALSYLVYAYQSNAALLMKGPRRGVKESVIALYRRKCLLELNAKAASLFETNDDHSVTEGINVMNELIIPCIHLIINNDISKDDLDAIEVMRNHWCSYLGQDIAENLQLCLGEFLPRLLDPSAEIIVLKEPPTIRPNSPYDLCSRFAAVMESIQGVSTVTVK
Assay: Ubiquitin-Rhodamine 110 Assay for USP28 Activity, Example A-1(a)
Format: biochemical
Conditions: Ubiquitin-Rhodamine 110 assay, Example A-1(a); read-out: USP28 A-1(a) IC50 range
Summary of the method: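 IC50 from 4-parameter logistic fit of percent inhibition versus no-enzyme and DMSO controls; compounds 25 μM to 1.3 nM, 3-fold. Ub-Rh110 cleavage (25 nM, below Km) by […] mammalian-expressed USP28-FL-His ran 45 min at room temperature, stopped with 10 mM citric acid, read ex 485/em 535.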

| Structure (SMILES) | IC50 [nM] |
| --- | --- |
| CO[C@H]1CN(c2cc3c(cc2C#N)C[C@@H](NC(=O)c2sc4nc(C)ccc4c2N)CC3)C[C@@H]1N [Example 201, 3-amino-N-[(2S)-6-[(3S,4S)-3-amino-4-methoxypyrrolidin-1-yl]-7-cyano-1,2,3,4-tetrahydronaphthalen-2-yl]-6-methylthieno[2,3-b]pyridine-2-carboxamide] | 1 to 50 |
| Cc1ccc2c(N)c(C(=O)N[C@H]3COc4cc(N5CCC[C@H]6CNC[C@H]65)ccc4C3)sc2n1 [Example 243, N-[(3R)-7-[(4aS,7aS)-octahydro-1H-pyrrolo[3,4-b]pyridin-1-yl]-3,4-dihydro-2H-1-benzopyran-3-yl]-3-amino-6-methylthieno[2,3-b]pyridine-2-carboxamide] | 1 to 50 |
| Cc1ccc2c(N)c(C(=O)N[C@H]3COc4cc(N5CC[C@@H]6CC[C@@H](N)C[C@@H]65)ccc4C3)sc2n1 [Example 233, N-[(3R)-7-[(3aS,6R,7aS)-6-amino-octahydro-1H-indol-1-yl]-3,4-dihydro-2H-1-benzopyran-3-yl]-3-amino-6-methylthieno[2,3-b]pyridine-2-carboxamide] | 1 to 50 |
| Cc1ccc2c(N)c(C(=O)N[C@@H]3Cc4ccc(N5CCNCC5)nc4[C@@H](C)C3)sc2n1 (single isomer, unassigned) [Example 205] | 200 to 2000 |
| COC[C@@H]1C[C@@H](N)CN1c1ccc2c(c1)OC[C@H](NC(=O)c1sc3nc(C)ccc3c1N)C2 [Example 260, 3-amino-N-[(3R)-7-[(25,4R)-4-amino-2-(methoxymethyl)pyrrolidin-1-yl]-3,4-dihydro-2H-1-benzopyran-3-yl]-6-methylthieno[2,3-b]pyridine-2-carboxamide] | 1 to 50 |
| CO[C@H]1CN(c2cc3c(cc2C#N)C[C@@H](NC(=O)c2sc4nc(C)ccc4c2N)CO3)C[C@@H]1N [Example 177, 3-amino-N-[(3R)-7-[(3S,4S)-3-amino-4-methoxypyrrolidin-1-yl]-6-cyano-3-4-dihydro-2H-1-benzopyran-3-yl]-6-methylthieno[2,3-b]pyridine-2-carboxamide] | 1 to 50 |
| Cc1ccc2c(N)c(C(=O)N[C@H]3COc4cc(N5C6CNCC5COC6)ccc4C3)sc2n1 [Example 209, 3-amino-6-methyl-N-[(3R)-7-{3-oxa-7,9-diazabicyclo[3.3.1]nonan-9-yl}-3,4-dihydro-2H-1-benzopyran-3-yl]thieno[2,3-b]pyridine-2-carboxamide] | 1 to 50 |
| CO[C@H]1CN(c2ccc3c(c2C#N)CC[C@H](NC(=O)c2sc4nc(C)ccc4c2N)C3)C[C@@H]1N [Example 178, 3-amino-N-[(2S)-6-[(3S,4S)-3-amino-4-methoxypyrrolidin-1-yl]-5-cyano-1,2,3,4-tetrahydronaphthalen-2-yl]-6-methylthieno[2,3-b]pyridine-2-carboxamide] | 1 to 50 |
| CCO[C@@H]1CN(c2ccc3c(n2)CC[C@H](NC(=O)c2sc4nc(C)ccc4c2N)C3)C[C@@H]1N [Example 254, 3-amino-N-[(6S)-2-[(3S,4R)-3-amino-4-ethoxypyrrolidin-1-yl]-5,6,7,8-tetrahydroquinolin-6-yl]-6-methylthieno[2,3-b]pyridine-2-carboxamide] | 50 to 200 |
| CO[C@H]1CN(c2cc3c(c(F)c2C#N)C[C@@H](NC(=O)c2sc4nc(C)ccc4c2N)CO3)C[C@@H]1N [Example 200] | 1 to 50 |
| Cc1ccc2c(N)c(C(=O)N[C@H]3COc4cc(N5C[C@H](N)CC[C@@H]5C(F)(F)F)ccc4C3)sc2n1 [Example 244, 3-amino-N-[(3R)-7-[(2R,5R)-5-amino-2-(trifluoromethyl)piperidin-1-yl]-3,4-dihydro-2H-1-benzopyran-3-yl]-6-methylthieno[2,3-b]pyridine-2-carboxamide] | 1 to 50 |
| Cc1ccc2c(N)c(C(=O)N[C@H]3COc4cc(N5C[C@@H]6NCCC(F)(F)[C@@H]6C5)ccc4C3)sc2n1 [Example 237, N-[(3R)-7-[(4aR,7aR)-4,4-difluoro-octahydro-1H-pyrrolo[3,4-b]pyridin-6-yl]-3,4-dihydro-2H-1-benzopyran-3-yl]-3-amino-6-methylthieno[2,3-b]pyridine-2-carboxamide] | 1 to 50 |
| Cc1ccc2c(N)c(C(=O)N[C@H]3COc4cc(N5CC[C@@H]6CNC[C@@H]65)cc(F)c4C3)sc2n1 [Example 221, N-[(3R)-7-[(3aR,6aR)-octahydropyrrolo[2,3-c]pyrrol-1-yl]-5-fluoro-3,4-dihydro-2H-1-benzopyran-3-yl]-3-amino-6-methylthieno[2,3-b]pyridine-2-carboxamide] | 1 to 50 |
| Cc1ccc2c(N)c(C(=O)N[C@H]3COc4cc(N5CC[C@H]6CC[C@H](N)C[C@H]65)ccc4C3)sc2n1 [Example 232, N-[(3R)-7-[(3aR,6S,7aR)-6-amino-octahydro-1H-indol-1-yl]-3,4-dihydro-2H-1-benzopyran-3-yl]-3-amino-6-methylthieno[2,3-b]pyridine-2-carboxamide] | 1 to 50 |
| N#Cc1c(N2CC3CCC(C2)N3)cc(F)c2c1CC[C@H](NC(=O)c1cnc3c(c1)[C@@H]1C[C@@H]1CN3)C2 [Example 195, (6aS,7aR)-N-[(2S)-5-cyano-6-{3,8-diazabicyclo[3.2.1]octan-3-yl}-8-fluoro-1,2,3,4-tetrahydronaphthalen-2-yl]-5H,6H,6aH,7H,7aH-cyclopropa[c]1,8-naphthyridine-2-carboxamide] | 1 to 50 |
| Cc1ccc2c(N)c(C(=O)N[C@H]3COc4cc(N5C[C@H](N)CC[C@H]5C(F)(F)F)ccc4C3)sc2n1 [Example 247, 3-amino-N-[(3R)-7-[(2S,5R)-5-amino-2-(trifluoromethyl)piperidin-1-yl]-3,4-dihydro-2H-1-benzopyran-3-yl]-6-methylthieno[2,3-b]pyridine-2-carboxamide] | 1 to 50 |
| CO[C@@]1(C)CN(c2ccc3c(n2)CC[C@H](NC(=O)c2sc4nc(C)ccc4c2N)C3)C[C@@H]1N [Example 210, 3-amino-N-[(6S)-2-[(3S,4S)-4-amino-3-methoxy-3-methylpyrrolidin-1-yl]-5,6,7,8-tetrahydroquinolin-6-yl]-6-methylthieno[2,3-b]pyridine-2-carboxamide] | 50 to 200 |
| CO[C@H]1CN(c2ccc3c(n2)OC[C@H](NC(=O)c2sc4nc(C)cnc4c2N)C3)C[C@@H]1N [Example 181, 7-amino-N-[(3R)-7-[(3S,4S)-3-amino-4-methoxypyrrolidin-1-yl]-2H,3H,4H-pyrano[2,3-b]pyridin-3-yl]-3-methylthieno[2,3-b]pyrazine-6-carboxamide] | 200 to 2000 |
| Cc1ccc2c(N)c(C(=O)N[C@H]3COc4cc(N5C[C@H](N)C6(COC6)C5)ccc4C3)sc2n1 [Example 258, 3-amino-N-[(3R)-7-[(8R)-8-amino-2-oxa-6-azaspiro[3.4]octan-6-yl]-3,4-dihydro-2H-1-benzopyran-3-yl]-6-methylthieno[2,3-b]pyridine-2-carboxamide] | 1 to 50 |
| CO[C@H]1CN(c2cc3c(c(F)c2C#N)C[C@@H](NC(=O)c2sc4nc(C)cnc4c2N)CO3)C[C@@H]1N [Example 199, 7-amino-N-[(3R)-7-[(3S,4S)-3-amino-4-methoxypyrrolidin-1-yl]-6-cyano-5-fluoro-3,4-dihydro-2H-1-benzopyran-3-yl]-3-methylthieno[2,3-b]pyrazine-6-carboxamide] | 1 to 50 |
| Cc1ccc2c(N)c(C(=O)N[C@H]3Cc4ccc(N5CCNCC5)nc4[C@@H](C)C3)sc2n1 [Example 206, 3-amino-6-methyl-N-[(6R,8S)-8-methyl-2-(piperazin-1-yl)-5,6,7,8-tetrahydroquinolin-6-yl]thieno[2,3-b]pyridine-2-carboxamide] | 50 to 200 |
| Cc1ccc2c(N)c(C(=O)N[C@H]3COc4cc(N5CC[C@@H]6CC[C@H](N)C[C@@H]65)ccc4C3)sc2n1 [Example 234, N-[(3R)-7-[(3aS,6S,7aS)-6-amino-octahydro-1H-indol-1-yl]-3,4-dihydro-2H-1-benzopyran-3-yl]-3-amino-6-methylthieno[2,3-b]pyridine-2-carboxamide] | 1 to 50 |
| CN[C@H]1CN(c2ccc3c(c2)OC[C@H](NC(=O)c2sc4nc(C)ccc4c2N)C3)C[C@@H]1OC [Example 212, 3-amino-N-[(3R)-7-[(3S,4S)-3-methoxy-4-(methylamino)pyrrolidin-1-yl]-3,4-dihydro-2H-1-benzopyran-3-yl]-6-methylthieno[2,3-b]pyridine-2-carboxamide] | 1 to 50 |
